# According to ChEMBL document CHEMBL5335774 (Eur J Med Chem, 2023):
# Assays:
# [1] = target: T1, Replicase polyprotein 1ab (Severe acute respiratory syndrome coronavirus 2, UniProt P0DTD1)
# [2] = target: T1, Replicase polyprotein 1ab; remark: listed apart in the source
# Replicase polyprotein 1a = Replicase polyprotein 1a (Severe acute respiratory syndrome-related coronavirus, UniProt P0C6U8)
# Procathepsin L = Procathepsin L (Homo sapiens, UniProt P07711)
# [3] = target: T1, Replicase polyprotein 1ab; remark: listed apart in the source
# [4] = target: Replicase polyprotein 1ab (Severe acute respiratory syndrome coronavirus 2) (UniProt P0DTD1); details: time 70.0 min
# Vero = test: Cytotoxicity against green monkey Vero cells; type: toxicity, cell-based; details: chlorocebus sabaeus
# [5] = target: Replicase polyprotein 1ab (Severe acute respiratory syndrome coronavirus 2) (UniProt P0DTD1); details: dose 40.0 µM, time 30.0 min
# SARS-CoV-2 = test: microbe, parasite or virus in culture; details: Severe acute respiratory syndrome coronavirus 2, Vero, 16 h
# Procathepsin L, sequence (P07711 whole entry): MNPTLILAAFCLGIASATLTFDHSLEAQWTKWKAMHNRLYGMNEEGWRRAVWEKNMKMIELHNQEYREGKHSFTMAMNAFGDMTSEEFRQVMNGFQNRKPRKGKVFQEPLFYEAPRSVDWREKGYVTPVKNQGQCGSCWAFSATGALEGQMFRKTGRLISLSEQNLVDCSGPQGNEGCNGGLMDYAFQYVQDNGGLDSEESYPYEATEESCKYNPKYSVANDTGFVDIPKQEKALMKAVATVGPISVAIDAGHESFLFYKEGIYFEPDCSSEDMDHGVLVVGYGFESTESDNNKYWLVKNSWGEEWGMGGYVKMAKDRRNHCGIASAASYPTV
compound,measurement,setting,value
CCSC(=S)NCc1cccnc1,IC50,[1]; read-out: IC50,0.178 µM
same,IC50,[2]; read-out: IC50,22.4 µM
Cc1cccc2nc(CSC(=S)NCc3cccnc3)cn12,IC50,[1]; read-out: IC50,0.021 µM
same,IC50,[2]; read-out: IC50,1.46 µM
same,IC50,[2]; read-out: pIC50 (converted),1.41 µM
same,IC50,Replicase polyprotein 1a,0.383 µM
same,IC50,Procathepsin L; read-out: IC50,122 µM
same,IC50,[3],0.008 µM
same,inhibition,[4],80%
same,Activity,Vero,Non-Toxic
same,ΔTm,[5],14.2 °C
same,IC50,SARS-CoV-2,1.06 µM
S=C(NCc1cccnc1)SCc1ccccc1,IC50,[1]; read-out: IC50,0.023 µM
same,IC50,[2]; read-out: IC50,9.36 µM
S=C(NCc1cccnc1)OCc1ccccc1,IC50,[1]; read-out: IC50,> 100 µM
same,IC50,[1]; read-out: pIC50 (converted),> 100 µM
same,pIC50,[2],< 4
same,IC50,[2]; read-out: IC50,> 100 µM
CC(C)C[C@H](NC(=O)OCc1ccccc1)C(=O)N[C@@H](CC1CCNC1=O)C(O)S(=O)(=O)O (some centres not stated),IC50,Procathepsin L; read-out: pIC50 (converted),0.000692 µM
S=C([S-])NCc1cccnc1.[K+],IC50,[1]; read-out: pIC50 (converted),0.0269 µM
same,IC50,[2]; read-out: IC50,1.36 µM
same,IC50,Replicase polyprotein 1a,0.165 µM
same,IC50,Procathepsin L; read-out: IC50,42.8 µM
same,Activity,Vero,Toxic
Cc1cccc2nc(CNC(=S)NCc3cccnc3)cn12,IC50,[1]; read-out: IC50,35 µM
same,pIC50,[2],< 4
same,IC50,[2]; read-out: IC50,> 100 µM
